Read-outs that look alike come from different tables or passages of the source.
Tests used:
[1] = biological target: T1, protein-protein interaction between SOS1 and KRAS G12C (Homo sapiens, UniProt P01116, C118S/C51S/C80L/G12C); assay: KRAS::SOS1 AlphaScreen binding assay
T1 construct: His6 (N)
Method: KRAS::SOS1 AlphaScreen Binding Assay
Assay buffer: • 1×PBS • 0.1% BSA • 0.05% Tween 20
AlphaLISA Glutathione Acceptor Beads and AlphaScreen Streptavidin Donor Beads are mixed in assay buffer at a concentration of 10 μg/mL (final assay concentration) each prior to use and kept at room temperature.
Compounds are diluted to a final start concentration of 100 μM and are tested in duplicate. […] For compound a start concentration of 100 μM, 150 nL of compound solution is transferred per well in 11 concentrations in duplicate with serial 1:5 dilutions.
The assay is run using a fully automated robotic system in a darkened room below 100 Lux. 10 μL of KRAS::SOS1 GDP mix is added into columns 1-24 to the 150 nL of compound solution (final dilution in the assay 1:100, final DMSO concentration 1%).
After 30 minutes incubation time 5 μL of bead mix is added into columns 1-23. Plates are kept at room temperature in a darkened incubator. After further 60 minutes incubation, the signal is measured using a PerkinElmer Envision HTS Multilabel Reader using the AlphaScreen specifications from PerkinElmer. Each plate contains the following controls: • diluted DMSO+KRAS::SOS1 GDP mix+bead mix • diluted DMSO+KRAS::SOS1 GDP mix
IC50 values are calculated and analyzed using a 4 parametric logistic model.

[2] = system: pERK (Thr202/Tyr204) in NCI-H358 (KRAS G12C mutation); assay: ERK phosphorylation assay 1 (AlphaLISA SureFire Ultra p-ERK1/2)
Method: ERK Phosphorylation Assay
Materials Used for the Assay:
AlphaLISA SureFire Ultra p-ERK1/2 (Thr202/Tyr204) Assay Kit (ALSU-PERK-A500)
The cells are incubated for 1 h at room temperature and then incubated overnight in an incubator at 37° C. and 5% CO2 in a humidified atmosphere. 60 nL compound solution (10 mM DMSO stock solution) is then added using a Labcyte Echo 550 device. […] After 20 minutes of incubation at room temperature with shaking, 6 μL of each lysate sample is transferred to a 384-well Proxiplate and analyzed for pERK (Thr202/Tyr204) with the AlphaLISA SureFire Ultra pERK1/2 (Thr202/Tyr204) Assay Kit. 3 μL Acceptor Mix and 3 μL Donor Mix are added under subdued light and incubated for 2 h at room temperature in the dark, before the signal is measured on a PerkinElmer Envision HTS Multilabel Reader. The raw data were imported into and analyzed with the Boehringer Ingelheim proprietary software MegaLab (curve fitting based on the program PRISM, GraphPad Inc.).

[3] = Homo sapiens, NCI-H358, read-out: IC50 H358 pERK

T1 sequence (P01116 1-169 isoform P01116-2 G12C/C51S/C80L/C118S): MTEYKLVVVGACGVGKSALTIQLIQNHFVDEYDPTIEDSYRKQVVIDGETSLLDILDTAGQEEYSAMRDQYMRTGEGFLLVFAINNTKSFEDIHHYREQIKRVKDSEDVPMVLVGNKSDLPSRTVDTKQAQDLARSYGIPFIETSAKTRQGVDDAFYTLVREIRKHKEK

Structure (SMILES)	IC50 ([1]; Table 36)	IC50 [2, 3]	further results
C=CC(=O)N1CCN(c2cc(-c3noc(C4(C)CCC(C)c5sc(N)c(C#N)c54)n3)nc(N3CCN(C)CC3)c2)CC1 (centres unmarked) [Ia-12]	117 nM	13.5 nM	
C=CC(=O)N1CCC(Oc2cc(O[C@@H](C)[C@@H]3CCCN3C)nc(-c3noc([C@]4(C)CCCc5sc(N)c(C#N)c54)n3)c2)CC1 [Ia-5]	622 nM		
C=CC(=O)N1CCN(c2cc(-c3noc([C@]4(C)CCCc5sc(N)c(C#N)c54)n3)nc(N3CCN(C)C[C@@H]3C)c2)CC1 [Ia-13]		7.3 nM	
C=CC(=O)N1CCN(c2cc(-c3noc(C4(C)CCCc5sc(N)c(C#N)c54)n3)nc(N3CCC(N4CCCCC4)CC3)c2)CC1 (centres unmarked) [Ia-37]	47 nM	12.3 nM	
C=CC(=O)N1CCN(c2cc(-c3noc(C4(C)CCCc5sc(N)c(C#N)c54)n3)nc(N3CCC(N4CCC(F)C4)CC3)c2)CC1 (centres unmarked) [Ia-38]	22 nM	5.8 nM	
C=CC(=O)N1CCN(c2cc(-c3noc(C4(C)CCCc5sc(N)c(C#N)c54)n3)nc(N3CC[C@H](N4CCCC4)C3)c2)CC1 (some centres unmarked) [Ia-20]	130 nM	20.7 nM	
C=CC(=O)N1CCN(c2cc(-c3noc([C@@]4(C)CC[C@H](C)c5sc(N)c(C#N)c54)n3)nc(N3CCN(C4CCCC4)CC3)c2)CC1 [Ia-11]	125 nM	12.3 nM	
C=CC(=O)N1CCN(c2cc(-c3noc(C4CCCc5sc(N)c(C#N)c54)n3)nc(N3CCN(C)CC3)c2)CC1 (centres unmarked) [Ia-27]	240 nM	61.6 nM	
C=CC(=O)N1CCN(c2cc(-c3noc(C4(C)CCCc5sc(N)c(C#N)c54)n3)nc(N3CCN(C)CC3)c2)CC1 (centres unmarked) [Ia-87]	51 nM	10 nM	
C=CC(=O)N1CCC(c2cc(-c3noc(C4(C)CCCc5sc(N)c(C#N)c54)n3)nc(N3CCN(C4CCCC4)CC3)c2)CC1 (centres unmarked) [Ia-2]		131 nM	IC50 ([1]; Table 35): 336 nM
C=CC(=O)N1CCN(c2cc(-c3noc(C4(C)CCCc5sc(N)c(C#N)c54)n3)nc(N3CCN(C)CC34CC4)c2)CC1 (centres unmarked) [Ia-25]	186 nM	112 nM	
C=CC(=O)N1CCN(c2cc(-c3noc(C4(C)CCCc5sc(N)c(C#N)c54)n3)nc(N3CCN(C(C)(C)C)CC3)c2)CC1 (centres unmarked) [Ia-31]	83 nM		
C=CC(=O)N1CCN(c2cc(-c3noc(C4(C)CCCc5sc(N)c(C#N)c54)n3)nc(N3CCN(C4CCC(F)(F)CC4)CC3)c2)CC1 (centres unmarked) [Ia-24]	406 nM	80.1 nM	
C=CC(=O)N1CCC2(CCN(c3cc(-c4noc([C@@]5(C)CCCc6sc(N)c(C#N)c65)n4)nc(N4CCCN(C)C[C@@H]4C)n3)C2)C1 (some centres unmarked) [Ia-96]	799 nM		
C=CC(=O)N1CC(CN(C)c2cc(-c3noc([C@@]4(C)CCCc5sc(N)c(C#N)c54)n3)nc(N3CCCN(C)C[C@@H]3C)n2)C1 [Ia-93]	381 nM		
C=CC(=O)N1CCN(c2cc(-c3noc(C4(C)CCCc5sc(N)c(C#N)c54)n3)nc(N3CCN(C4COC4)CC3)c2)CC1 (centres unmarked) [Ia-18]	364 nM	57.4 nM	
C=CC(=O)N1CCC(Oc2cc(-c3noc(C4(C)CCCc5sc(N)c(C#N)c54)n3)nc(N3CCC(N4CCOCC4)CC3)c2)CC1 (centres unmarked) [Ia-30]	103 nM	20.1 nM	
C=CC(=O)N1CCN(c2cc(-c3noc(C4(C)CCCc5sc(N)c(C#N)c54)n3)nc(N3CCN(C4CCN(C)CC4)CC3)c2)CC1 (centres unmarked) [Ia-28]	152 nM	785 nM	
C=CC(=O)N1CCN(c2cc(-c3noc(C4(C)CCCc5sc(N)c(C#N)c54)n3)nc(N3CCC(N4CCCC4)C3)c2)CC1 (centres unmarked) [Ia-23]	47 nM	6.5 nM	
C=CC(=O)N1CCC(Oc2cc(-c3noc([C@@]4(C)CCCc5sc(N)c(C#N)c54)n3)nc(N3CCN(C)CC3)c2)CC1 [Ia-91]	49 nM	11.6 nM	
C=CC(=O)N1CCCN(c2cc(-c3noc([C@@]4(C)CCCc5sc(N)c(C#N)c54)n3)nc(N3CCCN(CCCOC)C[C@@H]3C)n2)CC1 [Ia-45]	6 nM		
CC#CC(=O)N1CCN(c2cc(-c3noc(C4(C)CCCc5sc(N)c(C#N)c54)n3)nc(N3CCN(C)CC3)c2)CC1 (centres unmarked) [Ia-168]			IC50 ([1]; Table 38): 1020 nM
C=CC(=O)N1[C@H](C)CN(c2cc(-c3noc(C4(C)CCCc5sc(N)c(C#N)c54)n3)nc(N3CCN(C4CCCC4)CC3)c2)C[C@@H]1C (some centres unmarked) [Ia-8]	1000 nM	544 nM	
C=CC(=O)N1CCN(c2cc(-c3noc(C4(C)CCCc5sc(N)c(C#N)c54)n3)nc(N3CCC(N4CC[C@H](F)C4)CC3)c2)CC1 (some centres unmarked) [Ia-40]	19 nM	5.3 nM	
C=CC(=O)N1CCN(c2cc(OCCN(C)C)cc(-c3noc(C4(C)CCCc5sc(N)c(C#N)c54)n3)c2)CC1 (centres unmarked) [Ia-90]	250 nM		
C=CC(=O)N1CCN(c2cc(OCCN(C)C)nc(-c3noc(C4(C)CCCc5sc(N)c(C#N)c54)n3)c2)CC1 (centres unmarked) [Ia-89]	48 nM		
C=CC(=O)N1CCN(c2cc(-c3noc([C@@]4(C)CCCc5sc(N)c(C#N)c54)n3)nc(N3CCN(C)C[C@@H]3C)c2)CC1 [Ia-14]		2.7 nM	

Now from value to molecule, other results behind:

IC50 ([1]; Table 36)	IC50 [2, 3]	Structure (SMILES)	further results
418 nM	92.5 nM	C=CC(=O)N1CCC(Oc2cc(-c3noc(C4(C)CCCc5sc(N)c(C#N)c54)n3)nc(N3CCN(C4CCCC4)CC3)c2)CC1 (centres unmarked) [Ia-111]	
24 nM	5.9 nM	C=CC(=O)N1CCN(c2cc(-c3noc(C4(C)CCCc5sc(N)c(C#N)c54)n3)nc(N3CCN4CCC[C@H]4C3)c2)CC1 (some centres unmarked) [Ia-148]	
232 nM	233 nM	C=CC(=O)N1CCN(c2cc(-c3noc(C4(C)CCCc5sc(N)c(C#N)c54)n3)nc(N3CCN(CCF)CC3)c2)CC1 (centres unmarked) [Ia-125]	
377 nM	93.5 nM	C=CC(=O)N1CCCC(Oc2cc(-c3noc(C4(C)CCCc5sc(N)c(C#N)c54)n3)nc(N3CCN(C)CC3)c2)CC1 (centres unmarked) [Ia-145]	
76 nM	8.7 nM	C=CC(=O)N1CCN(c2cc(-c3noc(C4(C)CCCc5sc(N)c(C#N)c54)n3)nc(N3CCN(C(C)C)CC3)c2)CC1 (centres unmarked) [Ia-110]	
71 nM	9.5 nM	C=CC(=O)N1CCN(c2cc(-c3noc(C4(C)CCCc5sc(N)c(C#N)c54)n3)nc(N3CCN(C(C)C)C(C)C3)c2)CC1 (centres unmarked) [Ia-150]	
176 nM	36.4 nM	C=CC(=O)N1CCN(c2cc(OCCCN(C)C)cc(-c3noc(C4(C)CCCc5sc(N)c(C#N)c54)n3)c2)CC1 (centres unmarked) [Ia-142]	
63 nM	8.8 nM	C=CC(=O)N1CCN(c2cc(-c3noc(C4(C)CCCc5sc(N)c(C#N)c54)n3)nc(N3C[C@@H]4C[C@H]3CN4C3CCCC3)c2)CC1 (some centres unmarked) [Ia-115]	
	24.2 nM	C=CC(=O)N1CCN(c2cc(-c3noc([C@@]4(C)CCCc5sc(N)c(C#N)c54)n3)nc(N3CCN(C)C[C@H]3C)c2)CC1 [Ia-119]	
635 nM	71.8 nM	C=CC(=O)N1CCN(c2cc(-c3noc(C4(C)CCC(C)c5sc(N)c(C#N)c54)n3)nc(N3CCN(C)CC3)c2)CC1C (centres unmarked) [Ia-104]	
73 nM	18.5 nM	C=CC(=O)N1CC[C@@H](Oc2cc(-c3noc([C@@]4(C)CCCc5sc(N)c(C#N)c54)n3)nc(N3CCN(C)CC3)c2)C1 [Ia-112]	
	269 nM	C=CC(=O)N1CCN(c2cc(-c3noc(C4(C)CCCc5sc(N)c(C#N)c54)n3)nc(N3CCNCC3)c2)CC1 (centres unmarked) [Ia-170]	IC50 ([1]; Table 40): 87 nM
50 nM		C=CC(=O)N1CCN(c2cc(-c3noc(C4(C)CCCc5sc(N)c(C#N)c54)n3)nc(N3CCN(CC4CC4)CC3)c2)CC1 (centres unmarked) [Ia-146]	IC50 ([2]; read-out: IC50 H358 pERK, ERK phosphorylation assay 1 (values not marked with *), NCI-H358): 9.9 nM
405 nM	111 nM	C=CC(=O)N1CCC(Oc2cc(-c3noc(C4(C)CCC(C)c5sc(N)c(C#N)c54)n3)nc(N3CCN(C)CC3)c2)CC1 (centres unmarked) [Ia-120]	
71 nM		C=CC(=O)N1CCN(c2cc(-c3noc(C4(C)CCCc5sc(N)c(C#N)c54)n3)nc(N3CCN(C4CCCC4)CC3)c2)CC1 (centres unmarked) [Ia-147]	
647 nM	68.7 nM	C=CC(=O)N1CCN(c2cc(OCCN3CCCC3)cc(-c3noc(C4(C)CCCc5sc(N)c(C#N)c54)n3)c2)CC1 (centres unmarked) [Ia-144]	
340 nM	1330 nM	C=CC(=O)N1CC2(CCN(c3cc(-c4noc(C5(C)CCCc6sc(N)c(C#N)c65)n4)nc(N4CCN(C)CC4)c3)C2)C1 (centres unmarked) [Ia-143]	
198 nM	29.3 nM	C=CC(=O)N1CCN(c2cc(-c3noc(C4(C)CCCc5sc(N)c(C#N)c54)n3)nc(N3CCN(CC)CC3)c2)CC1C (centres unmarked) [Ia-107]	
145 nM	14.4 nM	C=CC(=O)N1CCN(c2cc(-c3noc(C4(C)CCC(C)c5sc(N)c(C#N)c54)n3)nc(N3CCN(CC)CC3)c2)CC1 (centres unmarked) [Ia-105]	
117 nM		C=CC(=O)N1CC2=C(C1)CN(c1cc(-c3noc([C@@]4(C)CCCc5sc(N)c(C#N)c54)n3)nc(N3CCCN(C)C[C@@H]3C)n1)C2 [Ia-102]	
30 nM	4.2 nM	C=CC(=O)N1CCN(c2cc(-c3noc([C@@]4(C)CCCc5sc(N)c(C#N)c54)n3)nc(N3CCN(CC)CC3)c2)CC1 [Ia-126]	
1190 nM	182 nM	C=CC(=O)N(C)c1cccc(-c2cc(-c3noc(C4(C)CCCc5sc(N)c(C#N)c54)n3)nc(N3CCN(C)CC3)c2)c1 (centres unmarked) [Ia-151]	
143 nM		C=CC(=O)N1CCC2C1CCN2c1cc(-c2noc([C@@]3(C)CCCc4sc(N)c(C#N)c43)n2)nc(N2CCCN(C)C[C@@H]2C)n1 (some centres unmarked) [Ia-103]	
